Experimental data published in patent US8846330B2, “Methods and kits for the diagnosis of RyR1-related diseases” (The Henry M. Jackson Foundation for the Advancement of …, priority 2008, dated 2014).
pKi: −log10 of the molar value. “Also recorded” adds a separate entry of the source.

Assays:
lymphocyte cells [1] = test: 4CmC-induced adenosine/inosine in human peripheral blood lymphocytes, HPLC (Example 1); type: cell-based; settings: 4CmC-stimulated lymphocytes
Experimental: FIG. 2 is a dose-response curve for 4-chloro-m-cresol (4CmC)-induced intracellular adenosine plus inosine in lymphocyte cells from malignant hyperthermia susceptible (MHS, n=11), not-susceptible (MHN, n=9), and normal (n=7) subjects. Lymphocyte cells were treated with 4CmC in the presence of an inhibitor of adenosine deaminase (EHNA, 0.1 mM). After purification, aliquot was analyzed for adenosine and inosine content using HPLC. Adenosine plus inosine values in the absence of 4CmC are plotted against X=0.02 mM to allow logarithmic display of the entire dose response curve. Adenosine plus inosine levels were normalized to reflect per 1 million cells. 4CmC responses at 1, 2, and 5 mM on MHS groups are about 4, 4, and 6 fold higher than the corresponding values in MI-1N or normal groups with values of 6×10^−5, 8×10^−5, and […], respectively. There were no overlaps between the MHS group and the MHN or normal groups.
Lymphocyte cells from MHS (n=11), MHN (n=9) and normal (n=7) subjects were suspended in normal HBSS plus 0.1% BSA and treated with adenosine deaminase inhibitor (EHNA, 0.1 mM). After 10 minutes of incubation at 37° C., cells were treated with HBSS, with and without the RyR1 agonist 4CmC (5 mM) and incubated at 37° C. for an additional 45 minutes. After termination and purification of the samples, aliquots (50 μl) were assayed in duplicate for adenosine and inosine content using HPLC. Concentrations are normalized to per 1 million cells. The sum of the adenosine plus inosine level is about 6-fold higher than corresponding values in normal and MHN cells.
Pilot studies were conducted using blood samples from human subjects in the following groups: Group 1: MHS subjects with positive CHCT and/or having a known MH associated mutation (n=11); Group 2: non-MH susceptible with negative CHCT results (MHN) (n=9), and Group 3: normal subjects who had not undergone CHCT and had no family history of MH (n=7).
Briefly, venous blood samples (20 ml) were drawn from patients using heparinized blood collection tubes. Peripheral blood lymphocyte cells were isolated from whole blood by the Ficoll-Hypaque centrifugation technique. Briefly, diluted anti-coagulated blood is layered over Ficoll-Hypaque and centrifuged. Mononuclear cells consisting of lymphocytes and some monocytes are recovered at the interface. The cells were washed with the Flanks' balanced salt solution (HBSS) buffer, re-suspended in the HBSS buffer, and treated with different concentration of 4CmC at 37° C. in the presence and/or absence of inhibitor of adenosine deaminase erythro-9-(2-hydroxy-3-nonyl)adenine (EHNA) for about 30 minutes. The cells were then purified by adding an equal volume of 6% HClO4 and centrifuged at 6000 rpm for 10 minutes. Aliquots of the supernatant were analyzed for adenosine and inosine content with HPLC using a Waters Separation Module (Model 2695) equipped with Waters Photodiode Array Detector and Empower software.

lymphocyte cells [2] = test: 4CmC-induced adenosine in swine lymphocyte cells, nucleosides assay (Example 4); type: cell-based; settings: for effect of azumolene on 4CmC-induced adenosine: azumolene up to 1 mM (0-1000 μM)
Experimental: Isolation of lymphocytes from whole blood: Lymphocyte cells were isolated from whole blood by Ficoll-Hypaque density gradient centrifugation technique (see Boyum A., Scand. J. Clip. Lab. 97:77-89 (1968)). Isolated lymphocyte cells were dispensed into 3-volume normal Hanks' balanced salt solution (HBSS) and centrifuged (10 minutes at 1000 RPM). The pellet was re-suspended in HBSS to lyse contaminating erythrocytes and spun. The later step was repeated one more time. To maintain simplicity of the protocol for possible MH diagnostic purposes no further purification was attempted. Lymphocyte cells were then cultured in RPMI-1640 media supplemented with 10% fetal bovine serum, […] penicillin and 2 mM glutamine. Cell cultures were incubated at 37° C. in a humidified chamber with 5% CO2. All experiments were completed within 4 days after isolation of lymphocyte cells from whole blood samples.
Nucleosides Assay Protocol: Briefly, lymphocyte cells (1−2×10^6 cells/test) were suspended in HBSS with or without Ca^2+/Mg^2+ (as indicated for each experiment) plus 0.1% bovine serum albumin (BSA). Experiments were carried out in the presence of the adenosine deaminase inhibitor erythro-9-(2-hydroxy-3-nonyl) adenine-HCl ([…]) to prevent deamination of adenosine to inosine (Lorbar et al., J Mol Cell Cardiol 31: 401-12 (1999)) and incubated at 37° C. for 10 minutes followed by treatment with different 4CmC concentrations (0.05-10 mM). Further incubation at 37° C. for an additional 45 minutes was also carried out. Final volumes of the test tubes were adjusted to 0.2 ml using HBSS buffer. Termination of the cell activity and purification of samples was accomplished by addition of 0.1 ml 12% perchloric acid followed by centrifugation at 5000 RPM for 10 minutes. Aliquots of the supernatant (50 μl) were assayed for adenosine and inosine content using HPLC.
HPLC Conditions: The HPLC system consisted of a Waters Symmetry C18 column (4.6×250 mm) and mobile phase of 94% KH2PO4 (50 mM, pH 4.6) containing 1-heptanesulfonic acid (0.5 mM) and 6% acetonitrile. Under these conditions, retention times for inosine and adenosine were 4 and 7.3 min, respectively. Peak width of inosine and adenosine were 18 and 36 seconds, respectively. Eluting compounds were detected by their absorbance at 254 nm using a Waters photodiode array detector (model 996). Sample adenosine and inosine concentrations were obtained using a calibrated standard curve of concentrations vs. peak area.
Statistics: Sample nucleosides concentrations were normalized to represent per 1 million cells and presented as means±SEM. The t-test was applied to test for differences between agonist-induced nucleosides in lymphocyte cells from MHS and normal swine. A P<0.05 considered to indicate statistical significance.

lymphocyte cells [3] = test: 4CmC-induced adenosine in human lymphocyte / immortalized B cells (Example 3); type: cell-based
[4] = system: skeletal muscle strips (Vastus lateralis); test: caffeine halothane contracture test (CHCT), swine muscle strips
[5] = system: biopsied skeletal muscle strips; test: caffeine halothane contracture test (CHCT), human muscle strips; settings: 2 mM caffeine, average of 3 muscle strips
Description: Currently definitive MH diagnosis is made by means of the invasive, surgery-requiring caffeine halothane contracture test (CHCT) in North America, by a similar in vitro contracture test (IVCT) in Europe and by technically very difficult calcium induced calcium release (CICR) in Japan; all these tests use biopsied leg muscle (Vasitis lateralis). Other countries are using tests essentially similar to one or these tests. CHCT has a sensitivity of 97% (accurately detects MH susceptible individuals) with a specificity of only 78% (yields 22% false positives). However, because of the invasive surgery, the costs of the test, and the limited viability of the biopsied skeletal muscle samples, the CHCT must be completed within 5 hours post biopsy. Therefore, the muscle biopsies must be conducted at a certified MH diagnostic center or in close-by hospitals (currently there are only 6 MH diagnostic centers in North America). Because of these procedural and logistic complexities, it is estimated that only about 10% of all individuals eligible to undergo the CHCT test are actually tested (estimated from referrals to the North American Malignant Hyperthermia Hotline).

[6] = muscle strips from normal swine

CCCCCC[C@@H]([C@@H](C)O)n1cnc2c(N)ncnc21 (racemic) [EHNA, erythro-9(2-hydroxy-3-nonyl)adenine]
EHNA concentration at which inosine formation decreased, matched by equimolar increase in adenosine (lymphocyte cells [1]): ≥ 10 µM | EHNA concentration at which inosine formation decreased and ADO increased to plateau level (lymphocyte cells [2]; swine lymphocytes (n=3)): ≥ 20 µM | inhibition of ADO deaminase by EHNA (lymphocyte cells [3]; immortalized B cells from a CHCT positive (MHS) subject, 4CmC 2 mM, FIG. 4): effectively inhibited

Cn1c(=O)c2c(ncn2C)n(C)c1=O [Caffeine, caffeine]
Caffeine (2 mM)-induced contractures, range ([4]; muscle strips from MHS swine): 4.7-17.1 mN | Caffeine (2 mM)-induced contractures, mean [4, 6]: 0.4 mN | Caffeine (2 mM)-induced contractures, range [4, 6]: 0-1 mN | CHCT Results Contractures (g) 2 mM Caf ([5]; Table 1, CHCT-negative subjects): 0 g | CHCT Results Contractures (g) 2 mM Caf ([5]; Table 2, MHN subjects): 0 g

N#CC(C#N)=NNc1ccc(OC(F)(F)F)cc1 [FCCP, Carbonyl cyanide 4-(trifluoromethoxy) phenylhydrazone]
ADO level reached with FCCP alone (lymphocyte cells [2]; FCCP 2 and 20 μM, FIG. 14A): 0.1 to 0.12 µM | effect of FCCP on basal adenosine levels (lymphocyte cells [2]; FCCP 2 and 20 μM, FIG. 14A): significantly increased | increase of basal ADO levels by FCCP alone (lymphocyte cells [2]; FCCP 2 and 20 μM, normal swine, Ca2+/Mg2+ free HBSS): 4.5 fold | effect of FCCP on 4CmC-induced ADO formation (lymphocyte cells [2]; both tested FCCP concentrations, 1 mM 4CmC during FCCP treatment (FIG. 14B)): prevented the maximum increase in ADO formation | effectiveness of FCCP in inducing ADO formation relative to 4CmC (lymphocyte cells [2]; normal swine lymphocytes): 25%

FC(F)(F)C(Cl)Br (centres unmarked) [Halothane, halothane]
Halothane (3%)-induced contractures, mean ([4]; muscle strips from MHS swine): 19.2±3.1 mN | Halothane (3%)-induced contractures, range ([4]; muscle strips from MHS swine): 11.2-33.1 mN | Halothane (3%)-induced contractures, mean [4, 6]: 1.2±1.0 mN | Halothane (3%)-induced contractures, range [4, 6]: 0-1.8 mN

C1CCC[C@H]2CCCN3CC[C@@H](CCCCCC[C@@H]4CCCN5CC[C@@H](CC1)O[C@@H]45)O[C@@H]23 [XeC, Xestospongin C]
effect of XeC on 4CmC-induced ADO (lymphocyte cells [2]; 1 μM XeC, 2 mM 4CmC, normal swine): did also not affect | decrease of 4CmC-induced ADO by XeC (lymphocyte cells [2]; 10 μM XeC, 2 mM 4CmC, normal swine (n=5)): 27% | effect of XeC alone on basal ADO levels (lymphocyte cells [2]; XeC 1 and 10 μM, Ca2+/Mg2+-free HBSS): did not affect | effect of XeC on 4CmC (2 mM)-induced adenosine (lymphocyte cells [2]; XeC as printed in figure legend, normal swine): Significantly (P=0.002) Reduced | effect of XeC alone on basal ADO levels (lymphocyte cells [3]; XeC 1 and 10 μM): did not produce any change | effect of XeC on response of B cells to 4CmC (lymphocyte cells [3]; immortalized B cells (MHS, n=3), Ca2+ free HBSS, 2 mM 4CmC): did not affect

O=C1CN(/N=C/c2ncc(-c3ccc(Br)cc3)o2)C(=O)N1 [azumolene]
effect of azumolene on 4CmC-induced adenosine (lymphocyte cells [2]; 1 mM 4CmC, normal swine (n=5), Ca2+/Mg2+-free HBSS): only marginally inhibited | effect of azumolene on 4CmC-induced adenosine (lymphocyte cells [2]; 1 mM 4CmC, normal swine (n=5), Ca2+/Mg2+-free HBSS, listed as Azumolene): did not significantly decrease; also recorded: did not significantly affect | pKi (lymphocyte cells [2]; non-linear curve fitting, 1 mM 4CmC, read-out: apparent Ki value of azumolene for inhibition of 4CmC-induced ADO formation): ~2.30
